# “Also recorded” adds a separate entry of the source.
# Test: Safety and tolerability
# Assay type: in vivo, Japanese patients
# Details: for Overall safety and tolerability: adult Japanese patients with r/r B‐cell malignancies
compound,measurement,setting,value
CC#CC(=O)N1CCC[C@H]1c1nc(-c2ccc(C(=O)Nc3ccccn3)cc2)c2c(N)nccn12 [acalabrutinib],Overall safety and tolerability,100 mg BID,safe and well‐tolerated
same,Overall safety and tolerability,"100 mg BID, listed as Acalabrutinib",generally safe and well‐tolerated
same,Dose‐limiting toxicities (DLTs),"100 mg BID, part 1",No DLTs were observed
same,AE of clinical interest: Anemia,Part 1 (N = 6),2 (33.3) n (%)
same,AE of clinical interest: Atrial fibrillation,Part 1 (N = 6),0 n (%)
same,AE of clinical interest: Cardiac events,Part 1 (N = 6),0 n (%)
same,AE of clinical interest: Hemorrhage,Part 1 (N = 6),0 n (%)
same,AE of clinical interest: Hepatotoxicity,Part 1 (N = 6),0 n (%)
same,AE of clinical interest: Infections,Part 1 (N = 6),6 (100.0) n (%)
same,AE of clinical interest: Interstitial lung disease/pneumonitis,Part 1 (N = 6),1 (16.7) n (%)
same,AE of clinical interest: Leukopenia,Part 1 (N = 6),1 (16.7) n (%)
same,AE of clinical interest: Neutropenia,Part 1 (N = 6),1 (16.7) n (%)
same,AE of clinical interest: Other hemorrhage,Part 1 (N = 6),0 n (%)
same,AE of clinical interest: Other leukopenia,Part 1 (N = 6),0 n (%)
same,AE of clinical interest: Second primary malignancies (excl. nonmelanoma skin cancer),Part 1 (N = 6),1 (16.7) n (%)
same,AE of clinical interest: Second primary malignancy,Part 1 (N = 6),1 (16.7) n (%)
same,AE of clinical interest: Thrombocytopenia,Part 1 (N = 6),1 (16.7) n (%)
same,AE of clinical interest: Tumor lysis syndrome,Part 1 (N = 6),0 n (%)
same,Patients with any AE of clinical interest,Part 1 (N = 6),6 (100.0) n (%)
same,Patients with any SAE,Part 1 (N = 6),3 (50.0) n (%)
same,SAE: Abdominal pain upper,Part 1 (N = 6),0 n (%)
same,SAE: Anemia,Part 1 (N = 6),1 (16.7) n (%)
same,SAE: Blood and lymphatic system disorders,Part 1 (N = 6),1 (16.7) n (%)
same,SAE: Colon cancer,Part 1 (N = 6),1 (16.7) n (%)
same,SAE: Gastrointestinal disorders,Part 1 (N = 6),0 n (%)
same,SAE: Infections and infestations,Part 1 (N = 6),1 (16.7) n (%)
same,"SAE: Neoplasms benign, malignant, and unspecified (incl. cysts and polyps)",Part 1 (N = 6),1 (16.7) n (%)
same,SAE: Pneumonia,Part 1 (N = 6),1 (16.7) n (%)
same,AE of clinical interest,Total (N = 25),95 Total number of AEs
same,AE of clinical interest: Anemia,Total (N = 25),6 (24.0) n (%)
same,AE of clinical interest: Atrial fibrillation,Total (N = 25),1 (4.0) n (%)
same,AE of clinical interest: Cardiac events,Total (N = 25),1 (4.0) n (%)
same,AE of clinical interest: Hemorrhage,Total (N = 25),8 (32.0) n (%)
same,AE of clinical interest: Hepatotoxicity,Total (N = 25),3 (12.0) n (%)
same,AE of clinical interest: Infections,Total (N = 25),16 (64.0) n (%)
same,AE of clinical interest: Interstitial lung disease/pneumonitis,Total (N = 25),1 (4.0) n (%)
same,AE of clinical interest: Leukopenia,Total (N = 25),7 (28.0) n (%)
same,AE of clinical interest: Neutropenia,Total (N = 25),6 (24.0) n (%)
same,AE of clinical interest: Other hemorrhage,Total (N = 25),8 (32.0) n (%)
same,AE of clinical interest: Other leukopenia,Total (N = 25),3 (12.0) n (%)
same,AE of clinical interest: Second primary malignancies (excl. nonmelanoma skin cancer),Total (N = 25),1 (4.0) n (%)
same,AE of clinical interest: Second primary malignancy,Total (N = 25),1 (4.0) n (%)
same,AE of clinical interest: Thrombocytopenia,Total (N = 25),5 (20.0) n (%)
same,AE of clinical interest: Tumor lysis syndrome,Total (N = 25),1 (4.0) n (%)
same,Patients with any AE of clinical interest,Total (N = 25),22 (88.0) n (%)
same,Patients with any SAE,Total (N = 25),6 (24.0) n (%)
same,SAE: Abdominal pain upper,Total (N = 25),1 (4.0) n (%)
same,SAE: Anemia,Total (N = 25),1 (4.0) n (%)
same,SAE: Blood and lymphatic system disorders,Total (N = 25),1 (4.0) n (%)
same,SAE: Colon cancer,Total (N = 25),1 (4.0) n (%)
same,SAE: Gastrointestinal disorders,Total (N = 25),1 (4.0) n (%)
same,SAE: Infections and infestations,Total (N = 25),3 (12.0 n (%)
same,"SAE: Neoplasms benign, malignant, and unspecified (incl. cysts and polyps)",Total (N = 25),1 (4.0) n (%)
same,SAE: Pneumonia,Total (N = 25),3 (12.0) n (%)
same,"AEs of clinical interest, patients",all 25 treated patients,88%
same,AEs resulting in treatment discontinuation or death,all 25 treated patients,No AEs resulted in treatment discontinuation or death; also recorded: No AEs with the outcome of death or AEs/SAEs leading to treatment discontinuation were reported
same,"Grade 4 AEs, patients",all 25 treated patients,20%
same,"Headache (any AE), patients",all 25 treated patients,32%
same,"Rash (any AE), patients",all 25 treated patients,28%
same,"SAEs related to treatment, patients",all 25 treated patients,16%
same,"Serious adverse events (SAEs), patients",all 25 treated patients,24%
same,"Treatment‐related adverse events, patients",all 25 treated patients,88%
same,"Treatment‐related headache, patients",all 25 treated patients,28%
same,"Treatment‐related purpura, patients",all 25 treated patients,24%
same,AE of clinical interest: Anemia,r/r CLL/SLL cohort (N = 9),2 (22.2) n (%)
same,AE of clinical interest: Atrial fibrillation,r/r CLL/SLL cohort (N = 9),0 n (%)
same,AE of clinical interest: Cardiac events,r/r CLL/SLL cohort (N = 9),0 n (%)
same,AE of clinical interest: Hemorrhage,r/r CLL/SLL cohort (N = 9),4 (44.4) n (%)
same,AE of clinical interest: Hepatotoxicity,r/r CLL/SLL cohort (N = 9),1 (11.1) n (%)
same,AE of clinical interest: Infections,r/r CLL/SLL cohort (N = 9),6 (66.7) n (%)
same,AE of clinical interest: Interstitial lung disease/pneumonitis,r/r CLL/SLL cohort (N = 9),0 n (%)
same,AE of clinical interest: Leukopenia,r/r CLL/SLL cohort (N = 9),3 (33.3) n (%)
same,AE of clinical interest: Neutropenia,r/r CLL/SLL cohort (N = 9),3 (33.3) n (%)
same,AE of clinical interest: Other hemorrhage,r/r CLL/SLL cohort (N = 9),4 (44.4) n (%)
